{"source": "paper PMC6238539", "about": "“Discovery of a cofactor-independent inhibitor of Mycobacterium tuberculosis InhA” (Life Science Alliance, 2018)", "key": {"M. tuberculosis H37Rv": {"test_system": "M. tuberculosis H37Rv", "type": "cell-based, Mycobacterium tuberculosis"}, "[1]": {"test_system": "M. tuberculosis inhA promoter and coding sequence mutants", "type": "cell-based, Mycobacterium tuberculosis", "settings": "read-out: Liquid IC90"}, "[2]": {"test_system": "M. tuberculosis drug-resistant clinical isolates", "assay": "microbe, parasite or virus in culture", "type": "cell-based", "settings": "Mycobacterium tuberculosis"}, "[3]": {"test_system": "M. tuberculosis H37Rv-resistant mutants", "type": "cell-based, Mycobacterium tuberculosis", "settings": "read-out: Liquid media IC90"}, "[4]": {"test_system": "M. tuberculosis inhA promoter and coding sequence mutants", "settings": "cited from earlier work"}, "M. tuberculosis": {"test_system": "M. tuberculosis", "settings": "cited from earlier work"}, "[5]": {"settings": "strains of Table 3, ref McNeil et al, 2017"}}, "note": "Where “and” joins values, the source holds several entries; their conditions need not be identical. Identical values can stand only once. Like-named read-outs stand apart in the source and are kept apart here.", "data": [{"compound": "N#Cc1ccc(Oc2ccc3c(c2)COB3O)c(/C=N/O)c1", "note": "[AN3438]", "values": [{"measurement": "frequency of resistance", "setting": "M. tuberculosis H37Rv", "result": "6.5 × 10^−7"}]}, {"compound": "CCS(=O)(=O)N1N=Cc2ccc(Oc3ccc(C(F)(F)F)cc3/C=N/O)cc2B1O", "note": "[AN12855]", "values": [{"measurement": "frequency of resistance", "setting": "M. tuberculosis H37Rv", "result": "6.5 × 10^−7"}, {"measurement": "IC90", "setting": "[1]", "result": 60, "unit": "nM"}, {"measurement": "MIC", "setting": "[2]; H37RV, read-out: MIC", "result": 0.13, "unit": "µg/mL"}, {"measurement": "MIC", "setting": "[2]; read-out: MIC", "result": 0.25, "unit": "µg/mL"}]}, {"compound": "NNC(=O)c1ccncc1", "note": "[INH, isoniazid]", "values": [{"measurement": "IC90", "setting": "[3]", "result": "300 nM and 100 nM and 400 nM"}, {"measurement": "MIC", "setting": "[2]; H37RV, read-out: MIC", "result": "< 0.06", "unit": "µg/mL"}, {"measurement": "IC90", "setting": "[4]; strain H37Rv (WT), ref McNeil et al (2017), read-out: Liquid IC90", "result": 100, "unit": "nM"}, {"measurement": "Liquid IC90 (fold shift versus WT)", "setting": "[4]; strain LP-0532543-RM1, InhA S94A, ref McNeil et al (2017)", "result": 2, "unit": "×"}, {"measurement": "Liquid IC90 (fold shift versus WT)", "setting": "[4]; strain LP-0532543-RM2, InhA D148E, ref McNeil et al (2017)", "result": 1, "unit": "×"}, {"measurement": "Liquid IC90 (fold shift versus WT)", "setting": "[4]; strain LP-0532543-RM3, InhA A206E, ref McNeil et al (2017)", "result": 1, "unit": "×"}, {"measurement": "Liquid IC90 (fold shift versus WT)", "setting": "[4]; strain LP-0532543-RM4, InhA M161L, ref McNeil et al (2017)", "result": 1, "unit": "×"}, {"measurement": "Liquid IC90 (fold shift versus WT)", "setting": "[4]; strain LP-0532543-RM6, InhA M103T, ref McNeil et al (2017)", "result": 1, "unit": "×"}, {"measurement": "Liquid IC90 (fold shift versus WT)", "setting": "[4]; strain LP-0532543-RM7, InhA G205A, ref McNeil et al (2017)", "result": 1, "unit": "×"}, {"measurement": "Liquid IC90 (fold shift versus WT)", "setting": "[4]; strain LP-0532543-RM9, InhA I202F, ref McNeil et al (2017)", "result": 1, "unit": "×"}, {"measurement": "Liquid IC90 (fold shift versus WT)", "setting": "[4]; strain LP-0532543-RM11, InhA G205S, ref McNeil et al (2017)", "result": 1, "unit": "×"}, {"measurement": "Liquid IC90 (fold shift versus WT)", "setting": "[4]; strain LP-0532543-RM13, InhA F41L, ref McNeil et al (2017)", "result": 1, "unit": "×"}, {"measurement": "Liquid IC90 (fold shift versus WT)", "setting": "[4]; strain LP-0532543-RM14, InhA G212D, ref McNeil et al (2017)", "result": 1, "unit": "×"}, {"measurement": "Liquid IC90 (fold shift versus WT)", "setting": "[4]; strain LP-0532543-RM16, InhA I215S, ref McNeil et al (2017)", "result": 1, "unit": "×"}, {"measurement": "Liquid IC90 (fold shift versus WT)", "setting": "[4]; strain LP-0532543-RM18, InhA S19W, ref McNeil et al (2017)", "result": 1, "unit": "×"}, {"measurement": "Liquid IC90 (fold shift versus WT)", "setting": "[4]; strain LP-0532543-RM19, InhA I47L, ref McNeil et al (2017)", "result": 1, "unit": "×"}, {"measurement": "Liquid IC90 (fold shift versus WT)", "setting": "[4]; strain LP-0532543-RM28, InhA I21M, ref McNeil et al (2017)", "result": 1, "unit": "×"}, {"measurement": "Liquid IC90 (fold shift versus WT)", "setting": "[4]; strain LP-0532543-RM30, fabG1inhA promoter c-15t, ref McNeil et al (2017)", "result": 5, "unit": "×"}, {"measurement": "Liquid IC90 (fold shift versus WT)", "setting": "[4]; strain LP-0532543-RM34, InhA I21V, ref McNeil et al (2017)", "result": 2, "unit": "×"}, {"measurement": "Liquid IC90 (fold shift versus WT)", "setting": "[4]; strain LP-0532543-RM37, InhA L269R, ref McNeil et al (2017)", "result": 1, "unit": "×"}, {"measurement": "Liquid IC90 (fold shift versus WT)", "setting": "[4]; strain LP-0532543-RM41, InhA R195G, ref McNeil et al (2017)", "result": 2, "unit": "×"}, {"measurement": "Liquid IC90 (fold shift versus WT)", "setting": "[4]; strain LP-0532543-RM301, promoter c-15t, InhA N159K, ref McNeil et al (2017)", "result": 3, "unit": "×"}, {"measurement": "Liquid IC90 (fold shift versus WT)", "setting": "[4]; strain LP-0532543-RM304, promoter c-15t, InhA T162M, ref McNeil et al (2017)", "result": 4, "unit": "×"}, {"measurement": "Liquid IC90 (fold shift versus WT)", "setting": "[4]; strain LP-0532543-RM311, promoter c-15t, InhA M161V, ref McNeil et al (2017)", "result": 5, "unit": "×"}, {"measurement": "Liquid IC90 (fold shift versus WT)", "setting": "[4]; strain LP-0532543-RM313, promoter c-15t, InhA G205D, ref McNeil et al (2017)", "result": 2, "unit": "×"}, {"measurement": "Liquid IC90 (fold shift versus WT)", "setting": "[4]; strain LP-0532543-RM314, promoter c-15t, InhA I47M, ref McNeil et al (2017)", "result": 5, "unit": "×"}, {"measurement": "Liquid IC90 (fold shift versus WT)", "setting": "[4]; strain LP-0532543-RM318, promoter c-15t, InhA M199L, ref McNeil et al (2017)", "result": 4, "unit": "×"}, {"measurement": "Liquid IC90 (fold shift versus WT)", "setting": "[4]; strain LP-0532543-RM320, promoter c-15t, InhA G208D, ref McNeil et al (2017)", "result": 4, "unit": "×"}, {"measurement": "Liquid IC90 (fold shift versus WT)", "setting": "[4]; strain LP-0571426-RM24, InhA I194T, ref McNeil et al (2017)", "result": 3, "unit": "×"}, {"measurement": "frequency of resistance", "setting": "M. tuberculosis", "result": "1 × 10^−5"}]}, {"compound": "CC1(C)CCC(Cc2cc(O)c(-c3ccccc3)c(=O)[nH]2)CC1", "note": "[NITD-916]", "values": [{"measurement": "resistance of inhA / fabG1inhA promoter mutant strains", "setting": "[4]; [5]", "result": "resistant"}, {"measurement": "frequency of resistance", "setting": "M. tuberculosis; ref Manjunatha et al, 2015, Martínez-Hoyos et al, 2016", "result": "1 × 10^−8"}]}, {"compound": "CO[C@H]1/C=C/O[C@@]2(C)Oc3c(C)c(O)c4c(O)c(c(/C=N/N5CCN(C)CC5)c(O)c4c3C2=O)NC(=O)/C(C)=C\\C=C\\[C@H](C)[C@H](O)[C@@H](C)[C@@H](O)[C@@H](C)[C@H](OC(C)=O)[C@@H]1C", "note": "[RIF, rifampicin]", "values": [{"measurement": "MIC", "setting": "[2]", "result": "> 16", "unit": "µg/mL"}, {"measurement": "MIC", "setting": "[2]; H37RV", "result": "< 0.06", "unit": "µg/mL"}]}, {"compound": "Oc1cc(Cl)ccc1Oc1ccc(Cl)cc1Cl", "note": "[triclosan]", "values": [{"measurement": "cross-resistance of the mutants", "setting": "[4]; [5]", "result": "None of the mutants demonstrated cross-resistance"}]}]}
